Laboratory results as given in patent publication US6605459B2, “Methods for measuring cysteine and determining cysteine synthase activity” (Paradigm Genetics, Inc., priority 2001, dated 2003).

Target: T1, cysteine synthase (Arabidopsis thaliana, UniProt Q9S6Z7)
T1 construct: made in house; host or cells: E. coli BL21(DE3)lysS (pET30/CS) or Sf-9 insect cells (baculovirus, pFB/CS)
Test: Assay tolerance of DMSO in the cysteine synthase assay
Format: biochemical
Conditions: 0 to 2% DMSO (by volume)
Method: A cysteine synthase assay was performed using various amounts of DMSO to test the assay compatibility of the DMSO. The results are shown in FIG. 24, where all values are the mean of triplicate determinations, and standard deviations are indicated.

T1 sequence (Q9S6Z7 whole entry): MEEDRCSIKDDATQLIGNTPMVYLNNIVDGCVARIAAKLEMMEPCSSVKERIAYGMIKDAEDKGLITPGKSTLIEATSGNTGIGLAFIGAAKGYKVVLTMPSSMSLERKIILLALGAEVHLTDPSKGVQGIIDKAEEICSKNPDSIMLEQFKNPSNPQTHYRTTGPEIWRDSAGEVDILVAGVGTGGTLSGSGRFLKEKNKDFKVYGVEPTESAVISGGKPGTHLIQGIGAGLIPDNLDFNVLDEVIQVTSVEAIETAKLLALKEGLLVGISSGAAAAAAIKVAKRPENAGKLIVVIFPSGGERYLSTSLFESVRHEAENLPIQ

Q: For `C[S+](C)[O-]` [DMSO, dimethyl sulfoxide], which “inhibitory effect on cysteine synthase activity” value is on record?
A: No inhibitory effect
